Where two headings read alike, the source gives them in different places.
How the values were obtained:
[1] = target: T1, human 5-hydroxytryptamine-2C (h5-HT2C) receptor (Homo sapiens, UniProt P28335); assay: [125I]DOI binding to membranes of CHO cells expressing the human 5-HT2C receptor; settings: [125I]DOI radioligand, CHO cell membranes, room temperature 60 min
T1 construct: expressed in transfected cells; host or cells: CHO (Chinese Hamster Ovary) cells; membranes
T1 sequence (P28335 33-458): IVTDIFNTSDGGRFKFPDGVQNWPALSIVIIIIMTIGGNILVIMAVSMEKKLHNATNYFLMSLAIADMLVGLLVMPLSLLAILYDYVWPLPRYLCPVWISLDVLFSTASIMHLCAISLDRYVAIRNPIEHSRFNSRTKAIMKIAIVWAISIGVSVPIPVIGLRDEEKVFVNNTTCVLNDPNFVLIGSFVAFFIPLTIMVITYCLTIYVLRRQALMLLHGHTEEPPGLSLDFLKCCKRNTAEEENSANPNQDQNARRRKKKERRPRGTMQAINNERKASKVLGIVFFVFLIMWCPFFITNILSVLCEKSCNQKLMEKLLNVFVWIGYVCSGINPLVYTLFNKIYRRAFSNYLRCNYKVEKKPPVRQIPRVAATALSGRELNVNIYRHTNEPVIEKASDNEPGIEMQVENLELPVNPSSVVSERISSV

human 5-HT2C receptor = target: T2, human 5-HT2C receptor (Homo sapiens, UniProt P28335); assay: 5-HT2C receptor-stimulated calcium mobilization (FLIPR) in CHO cells; type: cell-based; settings: for Emax: CHO; for EC50: calcium mobilization, CHO cells stably expressing human 5-HT2C;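 for all read-outs here: Fluo-3-AM fluorescence read on FLIPR every 1 s, agonist added after 10 baseline reads, response taken as peak minus lowest raw fluorescence count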
T2 sequence (P28335 33-458): T1 sequence (P28335 33-458)

[2] = percentage of the response observed with a maximally effective concentration of 5-HT, read-out: 5-HT2C Function Emax (%)
[3] = percentage of the response observed with a maximally effective concentration of 5-HT

Ki ([1]; read-out: 5-HT2C Affinity Ki) [nM]	Emax (human 5-HT2C receptor; [2]) [%]	EC50 (human 5-HT2C receptor; read-out: 5-HT2C Function EC50) [nM]	5-HT2C Function Emax (%) (human 5-HT2C receptor; [3])	SMILES	Ki ([1]; 5-HT2C Affinity Ki (nM)) [nM]	EC50 (human 5-HT2C receptor; 5-HT2C Function EC50 (nM)) [nM]	Emax (human 5-HT2C receptor; read-out: 5-HT2C Function Emax (%), percentage of the response observed with a maximally effective concentration of 5-HT) [%]
1.4	90	4	–	COc1cc2c(c(-c3cc(Cl)ccc3Cl)c1)OC(CN)C2 (single isomer, unassigned; (+)) [Example 368, (+)-{[7-(2,5-dichlorophenyl)-5-methoxy-2,3-dihydro-1-benzofuran-2-yl]methyl}amine]	–	–	–
12	90	49	–	NCC1Cc2cc(C(F)(F)F)cc(-c3cccnc3)c2O1 (racemic) [Example 343, (±)-{[7-pyridin-3-yl-5-(trifluoromethyl)-2,3-dihydro-1-benzofuran-2-yl]methyl}amine]	–	–	–
1.2	100	9	–	CNCC1Cc2cc(F)cc(-c3ccccc3C)c2O1 (racemic) [Example 440, (±)-{[5-fluoro-7-(2-methylphenyl)-2,3-dihydro-1-benzofuran-2-yl]methyl}methylamine]	–	–	–
164	90	70	–	NCC1Cc2cc(C(F)(F)F)cc(-c3ccccc3F)c2O1 (racemic) [Example 313, (±)-{[5-(trifluoromethyl)-7-(2-fluorophenyl)-2,3-dihydro-1-benzofuran-2-yl]methyl}amine]	–	–	–
3.1	80	7	–	CNCC1Cc2cc(OC)cc(-c3ccccc3Cl)c2O1 (racemic) [Example 492, (±)-{[7-(2-chlorophenyl)-5-methoxy-2,3-dihydro-1-benzofuran-2-yl]methyl}methylamine]	–	–	–
1.1	80	59	–	CNCC1Cc2cccc(-c3ccc(C)cc3)c2O1 (racemic) [Example 418, (±)-[(N-methyl-1-[7-(4-methylphenyl)-2,3-dihydro-1-benzofuran-2-yl]methanamine]	–	–	–
0.63	100	63	–	COc1cc2c(c(-c3ccccc3F)c1)OC(CN)C2 (racemic) [Example 356, (±)-{[7-(2-fluorophenyl)-5-methoxy-2,3-dihydro-1-benzofuran-2-yl]methyl}amine]	–	–	–
1	90	2	–	CNCC1Cc2cc(F)cc(-c3cc(Cl)ccc3Cl)c2O1 (racemic) [Example 449, (±)-{[7-(2,5-dichlorophenyl)-5-fluoro-2,3-dihydro-1-benzofuran-2-yl]methyl}methylamine]	–	–	–
3	90	22	–	CNCC1Cc2cccc(-c3ccccc3Cl)c2O1 (racemic) [Example 409, (±)-[(N-methyl-1-[7-(2-chlorophenyl)-2,3-dihydro-1-benzofuran-2-yl]methanamine]	–	–	–
13	80	394	–	COc1cc2c(c(-c3cc(F)ccc3F)c1)OC(CN)C2 (racemic) [Example 366, (±)-{[7-(2,5-difluorophenyl)-5-methoxy-2,3-dihydro-1-benzofuran-2-yl]methyl}amine]	–	–	–
86	80	256	–	CNCC1Cc2cc(OC)cc(-c3cc(C)ccc3C)c2O1 (racemic) [Example 500, (±)-{[7-(2,5-dimethylphenyl)-5-methoxy-2,3-dihydro-1-benzofuran-2-yl]methyl}methylamine]	–	–	–

Further lines, the compound ahead of its results:

SMILES	Ki ([1]; read-out: 5-HT2C Affinity Ki) [nM]	Emax (human 5-HT2C receptor; [2]) [%]	EC50 (human 5-HT2C receptor; read-out: 5-HT2C Function EC50) [nM]	5-HT2C Function Emax (%) (human 5-HT2C receptor; [3])	Ki ([1]; 5-HT2C Affinity Ki (nM)) [nM]	EC50 (human 5-HT2C receptor; 5-HT2C Function EC50 (nM)) [nM]	Emax (human 5-HT2C receptor; read-out: 5-HT2C Function Emax (%), percentage of the response observed with a maximally effective concentration of 5-HT) [%]
Cc1ccccc1-c1cc(F)cc2c1OC(CN)C2 (racemic) [Example 104, (±)-1-[5-fluoro-7-(2-methylphenyl)-2,3-dihydro-1-benzofuran-2-yl]methanamine]	1	100	241	–	–	–	–
COc1cccc(-c2cc(C)cc3c2OC(CN)C3)c1OC (racemic) [Example 294, (±)-{[7-(2,3-dimethoxyphenyl)-5-methyl-2,3-dihydro-1-benzofuran-2-yl]methyl}amine]	0.11	90	8	–	–	–	–
Cc1cccc(-c2cc(Cl)cc3c2OC(CN)C3)c1C (racemic) [Example 248, (±)-{[5-chloro-7-(2,3-dimethylphenyl)-2,3-dihydro-1-benzofuran-2-yl]methyl}amine]	9	80	225	–	–	–	–
NCC1Cc2c(cccc2-c2ccccc2)O1 (racemic) [Example 1, (±)-1-(4-phenyl-2,3-dihydro-1-benzofuran-2-yl)methanamine]	43	90	926	–	–	–	–
Cc1cccc(C)c1-c1cc(Cl)cc2c1OC(CN)C2 (single isomer, unassigned; (-)) [Example 261, (−)-{[5-chloro-7-(2,6-dimethylphenyl)-2,3-dihydro-1-benzofuran-2-yl]methyl}amine]	0.5	90	67	–	–	–	–
COc1ccc(C)c(-c2cc(F)cc3c2OC(CN)C3)c1 (racemic) [Example 224, (±)-{[5-fluoro-7-(5-methoxy-2-methylphenyl)-2,3-dihydro-1-benzofuran-2-yl]methyl}amine]	18	70	455	–	–	–	–
NCC1Cc2cccc(-c3ccccc3F)c2O1 (racemic) [Example 50, (±)-1-[7-(2-fluorophenyl)-2,3-dihydro-1-benzofuran-2-yl]methanamine]	1	100	14	–	–	–	–
NCC1Cc2cc(F)cc(-c3ccccc3C(F)(F)F)c2O1 (single isomer, unassigned; (-)) [Example 151, (−)-1-{5-fluoro-7-[2-(trifluoromethyl)phenyl]-2,3-dihydro-1-benzofuran-2-yl}methanamine]	1.1	–	27	100	–	–	–
NCC1Cc2cccc(-c3cc(Cl)ccc3Cl)c2O1 (racemic) [Example 163, (±)-{[7-(2,5-dichlorophenyl)-2,3-dihydro-1-benzofuran-2-yl]methyl}amine]	0.23	90	2	–	–	–	–
Cc1ccc(-c2cccc3c2OC(CN)C3)cc1 (single isomer, unassigned; (+)) [Example 71, (+)-1-[7-(4-methylphenyl)-2,3-dihydro-1-benzofuran-2-yl]methanamine]	1	100	1.4	–	–	–	–
NCC1Cc2cc(F)cc(-c3ccccc3)c2O1 (racemic) [Example 103, (±)-1-(5-fluoro-7-phenyl-2,3-dihydro-1-benzofuran-2-yl)methanamine]	7	80	996	–	–	–	–
NCC1Cc2cccc(-c3ccc(F)cc3F)c2O1 (racemic) [Example 146, (±)-1-[7-(2,4-difluorophenyl)-2,3-dihydro-1-benzofuran-2-yl]methanamine]	2.4	90	5	–	–	–	–
NCC1Cc2cc(Cl)cc(-c3ccccc3)c2O1 (single isomer, unassigned; (-)) [Example 86, (−)-1-(5-chloro-7-phenyl-2,3-dihydro-1-benzofuran-2-yl)methanamine]	75	–	963	90	–	–	–
COc1cc2c(c(-c3ccccc3Cl)c1)OC(CN)C2 (racemic) [Example 357, (±)-{[7-(2-chlorophenyl)-5-methoxy-2,3-dihydro-1-benzofuran-2-yl]methyl}amine]	–	–	–	–	18	2	100
NCC1Cc2cc(F)cc(-c3ccccc3F)c2O1 (racemic) [Example 107, (±)-1-[5-fluoro-7-(2-fluorophenyl)-2,3-dihydro-1-benzofuran-2-yl]methanamine]	1	100	93	–	–	–	–
Cc1ccccc1-c1cc(F)c(F)c2c1OC(CN)C2 (racemic) [Example 110, (±)-1-[4,5-difluoro-7-(2-methylphenyl)-2,3-dihydro-1-benzofuran-2-yl]methanamine]	9	70	1000	–	–	–	–
Cc1ccccc1-c1cc(F)cc2c1OC(CN)C2 (single isomer, unassigned; (-)) [Example 106, (−)-1-[5-fluoro-7-(2-methylphenyl)-2,3-dihydro-1-benzofuran-2-yl]methanamine]	16	–	91	50	–	–	–
NCC1Cc2cc(Cl)cc(-c3ccc(F)c(F)c3)c2O1 (racemic) [Example 258, (±)-{[5-chloro-7-(3,4-difluorophenyl)-2,3-dihydro-1-benzofuran-2-yl]methyl}amine]	42	80	734	–	–	–	–
CNCC1Cc2cc(Cl)cc(-c3ccsc3)c2O1 (single isomer, unassigned; (+)) [Example 93, (+)-N-[(5-chloro-7-thien-3-yl-2,3-dihydro-1-benzofuran-2-yl)methyl]-N-methylamine]	13	80	874	–	–	–	–
N#Cc1cc2c(c(-c3ccccc3Cl)c1)OC(CN)C2 (racemic) [Example 312, (±)-2-(aminomethyl)-7-(2-chlorophenyl)-2,3-dihydro-1-benzofuran-5-carbonitrile]	15	90	25	–	–	–	–

Source: patent publication US7435837B2, “Dihydrobenzofuranyl alkanamine derivatives and methods for using same” (Wyeth, priority 2003, dated 2008)
